{"source": "paper PMC6222781", "about": "“Structural Optimization of Foldamer-Dendrimer Conjugates as Multivalent Agents against the Toxic Effects of Amyloid Beta Oligomers” (Molecules : A Journal of Synthetic Chemistry and Natural …, 2018)", "key": {"[1]": {"biological_target": "T1, Aβ oligomers (Homo sapiens, UniProt P05067)", "T1 construct": "Ser^26 depsipeptide iso-Aβ (1–42) was used; made in house; host or cells: chemical peptide synthesis (no expression host)", "T1 sequence (P05067 672-713 limits assumed)": "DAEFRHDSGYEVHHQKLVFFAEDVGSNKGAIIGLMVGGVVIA", "test": "Sandwich ELISA binding of biotin-tagged conjugates to Aβ", "source_text": "To study the role of certain structure elements in the binding affinity, a set of new foldamer sequences were designed (Figure 2) and ligated to lysine-dendron scaffolds having a focal symmetry. This template with biotin affinity tag can be easily synthesized by solid phase peptide synthesis and immobilized on a streptavidin coated support such as the surface of the ELISA plate. Structural changes included fine-tuning the side-chain properties (2b–2d), changing the position of ionic residues (2e) and introducing bulky bicyclic side-chains (2f–2i).\nThe binding affinities of 2b–2i to Aβ oligomers were tested in ITC experiments. In such cases where the fitting failed due to low heat response or poor solubility, sandwich ELISA experiments were performed to enable the comparison of all conjugates (see Supporting Information for details).\nThe apparent dissociation constants for the complete set of new conjugates were calculated individually from the data of the ELISA experiments as well. Comparing the KD values of 2f–2i in this case, the replacement of ACHC to ABHC had only a minor effect on the Aβ binding. The cyclic β-amino acid ACHC not only provides the helical conformation of such a short foldamer but also protects the ionic residues from solvent upon binding due to its hydrophobicity."}, "[2]": {"biological_target": "T1, Aβ oligomers", "test": "Isothermal titration calorimetry (ITC) binding to Aβ oligomers", "conditions": "Table 2, PBS pH 7.4, 285 K; for Kd: Aβ 100 µM in cell, ligand 250 µM in syringe, two independent site model", "experimental": "The binding affinities of 2b–2i to Aβ oligomers were tested in ITC experiments.\nIn this work, Ser^26 depsipeptide iso-Aβ (1–42) was used, which was synthesized and purified as described previously. The lyophilized iso-Aβ (1–42) was dissolved in MilliQ water to a concentration of 1 mg mL^−1, sonicated for 3 min and the pH was set to 7.0 to initiate an O to N acyl migration, whereby the native sequence can be readily formed. The sample was incubated at room temperature for 10 min. Then the pH was set to 11 and the sample was kept at room temperature for additional 2 h. After the incubation, the Aβ stock solution was aliquoted and stored at −20 °C until use. To obtain Aβ oligomers, the 1 mg mL^−1 aliquot was diluted to a final concentration of 50 μM with 26.67 mM PBS and the pH was set to 7.4 with 1 M HCl. The sample was incubated at 37 °C for 3 h.\nIsothermal calorimetric titrations were performed with a Microcal VP-ITC microcalorimeter in pH 7.4 PBS buffer solution. In individual titrations, 10 µL portions of the ligand containing solution were repeatedly injected from the computer-controlled 300-µL microsyringe at intervals of 300 s into the Aβ oligomer solution prepared in the same buffer as the ligand. All measurements were carried out at 285 K. The Aβ concentration in the cell was 100 µM and the total ligand concentration was 250 µM in the syringe and the titration was stopped when the precipitation of the Aβ aggregates became excessive. Control experiments were performed by injecting the ligand into a cell containing buffer with no target, and the heats of dilution were subtracted from those measured in the presence of Aβ. The experimental data were fitted to the two independent site binding models by using a nonlinear least-squares procedure, with ΔHb, ΔHb’, Kd, Kd’ ([…]), n and n’ (number of binding sites for monomer), as adjustable parameters."}}}
{"smiles": "N=C(N)NCCC[C@H](NC(=O)[C@H]1CCCC[C@@H]1N)C(=O)N[C@H]1CCCC[C@@H]1C(=O)N[C@H]1CCCC[C@@H]1C(=O)N[C@@H](CC(=O)O)C(=O)N[C@H]1CCCC[C@@H]1C(=O)NCC(=O)NCC(=O)N[C@@H](CSC1CC(=O)N(CCC(=O)NCCCC[C@H](NC(=O)CCN2C(=O)CC(SC[C@H](NC(=O)CNC(=O)CNC(=O)[C@H]3CCCC[C@@H]3NC(=O)[C@H](CC(=O)O)NC(=O)[C@H]3CCCC[C@@H]3NC(=O)[C@H]3CCCC[C@@H]3NC(=O)[C@H](CCCNC(=N)N)NC(=O)[C@H]3CCCC[C@@H]3N)C(N)=O)C2=O)C(=O)NCCCC[C@H](NC(=O)[C@H](CCCCNC(=O)CCN2C(=O)CC(SC[C@H](NC(=O)CNC(=O)CNC(=O)[C@H]3CCCC[C@@H]3NC(=O)[C@H](CC(=O)O)NC(=O)[C@H]3CCCC[C@@H]3NC(=O)[C@H]3CCCC[C@@H]3NC(=O)[C@H](CCCNC(=N)N)NC(=O)[C@H]3CCCC[C@@H]3N)C(N)=O)C2=O)NC(=O)CCN2C(=O)CC(SC[C@H](NC(=O)CNC(=O)CNC(=O)[C@H]3CCCC[C@@H]3NC(=O)[C@H](CC(=O)O)NC(=O)[C@H]3CCCC[C@@H]3NC(=O)[C@H]3CCCC[C@@H]3NC(=O)[C@H](CCCNC(=N)N)NC(=O)[C@H]3CCCC[C@@H]3N)C(N)=O)C2=O)C(=O)N[C@@H](CCCCNC(=O)CCCC[C@@H]2SC[C@@H]3NC(=O)N[C@@H]32)C(N)=O)C1=O)C(N)=O", "note": "(some centres unmarked) [Compound 2d]", "values": [{"measurement": "Kd", "setting": "[1]", "value": "0.0077 ± 0.00306", "unit": "µM"}]}
{"smiles": "N=C(N)NCCC[C@@H](CC(=O)N[C@H]1CCCC[C@@H]1C(=O)N[C@@H](CC(=O)O)CC(=O)N[C@H]1CCCC[C@@H]1C(=O)NCC(=O)NCC(=O)N[C@@H](CSC1CC(=O)N(CCC(=O)NCCCC[C@H](NC(=O)CCN2C(=O)CC(SC[C@H](NC(=O)CNC(=O)CNC(=O)[C@H]3CCCC[C@@H]3NC(=O)C[C@H](CC(=O)O)NC(=O)[C@H]3CCCC[C@@H]3NC(=O)C[C@H](CCCNC(=N)N)NC(=O)[C@H]3CCCC[C@@H]3NC(=O)[C@H]3CCCC[C@@H]3N)C(N)=O)C2=O)C(=O)NCCCC[C@H](NC(=O)[C@H](CCCCNC(=O)CCN2C(=O)CC(SC[C@H](NC(=O)CNC(=O)CNC(=O)[C@H]3CCCC[C@@H]3NC(=O)C[C@H](CC(=O)O)NC(=O)[C@H]3CCCC[C@@H]3NC(=O)C[C@H](CCCNC(=N)N)NC(=O)[C@H]3CCCC[C@@H]3NC(=O)[C@H]3CCCC[C@@H]3N)C(N)=O)C2=O)NC(=O)CCN2C(=O)CC(SC[C@H](NC(=O)CNC(=O)CNC(=O)[C@H]3CCCC[C@@H]3NC(=O)C[C@H](CC(=O)O)NC(=O)[C@H]3CCCC[C@@H]3NC(=O)C[C@H](CCCNC(=N)N)NC(=O)[C@H]3CCCC[C@@H]3NC(=O)[C@H]3CCCC[C@@H]3N)C(N)=O)C2=O)C(=O)N[C@@H](CCCCNC(=O)CCCC[C@@H]2SC[C@@H]3NC(=O)N[C@@H]32)C(N)=O)C1=O)C(N)=O)NC(=O)[C@H]1CCCC[C@@H]1NC(=O)[C@H]1CCCC[C@@H]1N", "note": "(some centres unmarked) [Compound 2e]", "values": [{"measurement": "Kd", "setting": "[1]", "value": "0.00271 ± 0.00021", "unit": "µM"}]}
{"smiles": "N=C(N)NCCC[C@@H](CC(=O)N[C@H]1CCCC[C@@H]1C(=O)N[C@H]1CCCC[C@@H]1C(=O)N[C@@H](CC(=O)O)CC(=O)N[C@H]1CCCC[C@@H]1C(=O)NCC(=O)NCC(=O)N[C@@H](CSC1CC(=O)N(CCC(=O)NCCNC(=O)CCN(CCNC(=O)CCN(CCC(=O)NCCN(CCC(=O)NCCNC(=O)CCN2C(=O)CC(SC[C@H](NC(=O)CNC(=O)CNC(=O)[C@H]3CCCC[C@@H]3NC(=O)C[C@H](CC(=O)O)NC(=O)[C@H]3CCCC[C@@H]3NC(=O)[C@H]3CCCC[C@@H]3NC(=O)C[C@H](CCCNC(=N)N)NC(=O)[C@H]3CCCC[C@@H]3N)C(N)=O)C2=O)CCC(=O)NCCNC(=O)CCN2C(=O)CC(SC[C@H](NC(=O)CNC(=O)CNC(=O)[C@H]3CCCC[C@@H]3NC(=O)C[C@H](CC(=O)O)NC(=O)[C@H]3CCCC[C@@H]3NC(=O)[C@H]3CCCC[C@@H]3NC(=O)C[C@H](CCCNC(=N)N)NC(=O)[C@H]3CCCC[C@@H]3N)C(N)=O)C2=O)CCN(CCC(=O)NCCN(CCC(=O)NCCNC(=O)CCN2C(=O)CC(SC[C@H](NC(=O)CNC(=O)CNC(=O)[C@H]3CCCC[C@@H]3NC(=O)C[C@H](CC(=O)O)NC(=O)[C@H]3CCCC[C@@H]3NC(=O)[C@H]3CCCC[C@@H]3NC(=O)C[C@H](CCCNC(=N)N)NC(=O)[C@H]3CCCC[C@@H]3N)C(N)=O)C2=O)CCC(=O)NCCNC(=O)CCN2C(=O)CC(SC[C@H](NC(=O)CNC(=O)CNC(=O)[C@H]3CCCC[C@@H]3NC(=O)C[C@H](CC(=O)O)NC(=O)[C@H]3CCCC[C@@H]3NC(=O)[C@H]3CCCC[C@@H]3NC(=O)C[C@H](CCCNC(=N)N)NC(=O)[C@H]3CCCC[C@@H]3N)C(N)=O)C2=O)CCC(=O)NCCN(CCC(=O)NCCNC(=O)CCN2C(=O)CC(SC[C@H](NC(=O)CNC(=O)CNC(=O)[C@H]3CCCC[C@@H]3NC(=O)C[C@H](CC(=O)O)NC(=O)[C@H]3CCCC[C@@H]3NC(=O)[C@H]3CCCC[C@@H]3NC(=O)C[C@H](CCCNC(=N)N)NC(=O)[C@H]3CCCC[C@@H]3N)C(N)=O)C2=O)CCC(=O)NCCNC(=O)CCN2C(=O)CC(SC[C@H](NC(=O)CNC(=O)CNC(=O)[C@H]3CCCC[C@@H]3NC(=O)C[C@H](CC(=O)O)NC(=O)[C@H]3CCCC[C@@H]3NC(=O)[C@H]3CCCC[C@@H]3NC(=O)C[C@H](CCCNC(=N)N)NC(=O)[C@H]3CCCC[C@@H]3N)C(N)=O)C2=O)CCC(=O)NCCNC(=O)CCN2C(=O)CC(SC[C@H](NC(=O)CNC(=O)CNC(=O)[C@H]3CCCC[C@@H]3NC(=O)C[C@H](CC(=O)O)NC(=O)[C@H]3CCCC[C@@H]3NC(=O)[C@H]3CCCC[C@@H]3NC(=O)C[C@H](CCCNC(=N)N)NC(=O)[C@H]3CCCC[C@@H]3N)C(N)=O)C2=O)C1=O)C(N)=O)NC(=O)[C@H]1CCCC[C@@H]1N", "note": "(some centres unmarked) [Compound 6]", "values": [{"measurement": "Kd", "setting": "[2]; first binding stage", "value": "0.069 ± 0.012", "unit": "µM"}, {"measurement": "Kd", "setting": "[2]; second binding stage", "value": "0.193 ± 0.0305", "unit": "µM"}]}
{"smiles": "CC(=O)N[C@@H](CCCCNC(=O)CCN1C(=O)CC(SC[C@H](NC(=O)CNC(=O)CNC(=O)[C@H]2CCCC[C@@H]2NC(=O)C[C@H](CC(=O)O)NC(=O)[C@H]2CCCC[C@@H]2NC(=O)[C@H]2CCCC[C@@H]2NC(=O)C[C@H](CCCNC(=N)N)NC(=O)[C@H]2CCCC[C@@H]2N)C(N)=O)C1=O)C(=O)NCC(=O)N[C@@H](CCCCNC(=O)CCN1C(=O)CC(SC[C@H](NC(=O)CNC(=O)CNC(=O)[C@H]2CCCC[C@@H]2NC(=O)C[C@H](CC(=O)O)NC(=O)[C@H]2CCCC[C@@H]2NC(=O)[C@H]2CCCC[C@@H]2NC(=O)C[C@H](CCCNC(=N)N)NC(=O)[C@H]2CCCC[C@@H]2N)C(N)=O)C1=O)C(=O)NCC(=O)N[C@@H](CCCCNC(=O)CCN1C(=O)CC(SC[C@H](NC(=O)CNC(=O)CNC(=O)[C@H]2CCCC[C@@H]2NC(=O)C[C@H](CC(=O)O)NC(=O)[C@H]2CCCC[C@@H]2NC(=O)[C@H]2CCCC[C@@H]2NC(=O)C[C@H](CCCNC(=N)N)NC(=O)[C@H]2CCCC[C@@H]2N)C(N)=O)C1=O)C(=O)NCC(=O)N[C@@H](CCCCNC(=O)CCN1C(=O)CC(SC[C@H](NC(=O)CNC(=O)CNC(=O)[C@H]2CCCC[C@@H]2NC(=O)C[C@H](CC(=O)O)NC(=O)[C@H]2CCCC[C@@H]2NC(=O)[C@H]2CCCC[C@@H]2NC(=O)C[C@H](CCCNC(=N)N)NC(=O)[C@H]2CCCC[C@@H]2N)C(N)=O)C1=O)C(N)=O", "note": "(some centres unmarked) [Compound 8]", "values": [{"measurement": "ΔG, first binding stage", "setting": "[2]; ITC, first binding stage", "value": -11.07, "unit": "kcal/M"}, {"measurement": "ΔH, first binding stage", "setting": "[2]; ITC, first binding stage", "value": 2.31, "unit": "kcal/M"}, {"measurement": "ΔG, second binding stage", "setting": "[2]; ITC, second binding stage", "value": -8.48, "unit": "kcal/M"}, {"measurement": "ΔH, second binding stage", "setting": "[2]; ITC, second binding stage", "value": 0.51, "unit": "kcal/M"}]}
